In article PMC10449621, “Engineering cellular communication between light-activated synthetic cells and bacteria” (Nature Chemical Biology, 2023):
Entries after “also recorded” stand apart in the source; their conditions may differ.

Columns and labels:
[1] = test system: BjaRS107R (B0033|ATG) receiver cells; experiment: BjaR receiver cell AHSL dose-response (gfp reporter, plate reader); assay type: cell-based, E. coli XL10-Gold
Text: (§1) These findings are consistent with the predicted translation initiation rates of the respective sequences—translation from the BBa_B0033 RBS provides 1% of protein yield compared to the BBa_B0034 RBS, just as an CTG start codon provides 1% of the protein yield compared to an ATG start codon[30],[31]. This also offers support as to why the ON-state gfp expression level increased in variants with a tighter OFF-state; more cellular resources were available for GFP synthesis when comparatively fewer were allocated to BjaR synthesis. To elucidate the impact of the S107R variant on gene circuit performance, we introduced the S107R variant alone back into the bjaRWT gene, in the context of the BBa_B0033 RBS background.
(§2) In addition to quantifying how these BjaR receiver cells responded to their branched, cognate ligand, we also sought to determine whether the BjaR receiver cells could be activated by structurally dissimilar AHSLs involved in the LuxI/R, EsaI/R, LasI/R and RhlI/R QS systems previously used in synthetic cell communication[5],[7],[8]. To this end, we measured the fluorescence of BjaR receiver cells grown in the presence of their activators, 3OC6-HSL, 3OC12-HSL and C4-HSL, respectively (Supplementary Fig. 13a).
(§3) The BjaR reporter plasmids were retransformed into E. coli XL10-Gold cells for each experiment. A single colony was used to inoculate 5 ml LB + Amp media and incubated at 37 °C, 225 r.p.m. overnight. Overnight cultures were diluted 1/250 or 1/500 in 5 ml M9 minimal media + Amp and incubated at 37 °C, 225 r.p.m. for 3 h and 45 min (until OD600 = ~0.075). Cultures were diluted down to OD600 = 0.05 with M9 minimal media + Amp, and 200 µl was added to wells of a 96-well plate containing 1 µl IV-HSL dissolved in DMSO or 1 µl BjaI CFPS reactions (IV-HSL concentrations obtained from serial dilution from 63.2 µM to 632 pM; final DMSO concentration = 0.5%). Cells were incubated at 37 °C, 800 r.p.m., in a thermomixer with a heated lid for 4 h. Fluorescence and OD600 were measured in a Tecan M1000 infinite plate reader (excitation, 488 nm; emission, 510 nm; bandwidth, 5 nm; gain, 101 and z position, 21,311 µm). The dose–response curves were fitted to the function indicated by Eq. (1), where a = maximal fluorescence output, b = basal fluorescence output, X = concentration of AHSL, GFP = fluorescence at the given condition, EC50 = AHSL at 50% maximal fluorescence output and h = hill coefficient. EC50 and h were derived using the nonlinear regression model based on Eq. (1), in MATLAB. A summary of the dose–response data is available in Supplementary Table 1.1 GFP=b+a−b/1+10^logEC50−X×h

[2] = test system: BjaRWT (B0033|ATG) receiver cells; experiment: as above; assay type: cell-based, E. coli XL10-Gold
Text: as §1, §2, §3

pRhlI promoters (RhlR) = test system: pRhlI promoters (RhlR); set-up: method as in PMID 29992956; details: cited from earlier work

| Compound | gfp expression in response to non-cognate AHSL [1] | gfp expression in response to non-cognate AHSL [2] | sensitivity for IV-HSL over C4-HSL ([1]; C4-HSL vs IV-HSL) | activation of receiver cells at maximal concentration tested ([2]; 0.36 µM) | C4-HSL required relative to IV-HSL for the same fluorescence output (lower sensitivity) ([2]; C4-HSL vs IV-HSL) | concentration required to fully activate expression from pRhlI promoters (pRhlI promoters (RhlR)) |
| --- | --- | --- | --- | --- | --- | --- |
| CCCC(=O)CC(=O)N[C@H]1CCOC1=O [3OC6-HSL, N-(3-oxo-hexanoyl)-L-homoserine lactone] | minimal GFP was produced | did not express gfp; also recorded: minimal GFP was produced | – | – | – | – |
| CCCCCCCCCC(=O)CC(=O)N[C@H]1CCOC1=O [3OC12-HSL] | minimal GFP was produced | did not express gfp; also recorded: minimal GFP was produced | – | – | – | – |
| CCCC(=O)N[C@H]1CCOC1=O [C4-HSL, N-butyryl-L-homoserine lactone] | – | – | ~126 fold | partially activated | ~126 × | > 100 µM |
